For assay [1], the target named is T1, Dual specificity protein kinase TTK (Homo sapiens) (UniProt P33981).
T1 sequence (whole entry): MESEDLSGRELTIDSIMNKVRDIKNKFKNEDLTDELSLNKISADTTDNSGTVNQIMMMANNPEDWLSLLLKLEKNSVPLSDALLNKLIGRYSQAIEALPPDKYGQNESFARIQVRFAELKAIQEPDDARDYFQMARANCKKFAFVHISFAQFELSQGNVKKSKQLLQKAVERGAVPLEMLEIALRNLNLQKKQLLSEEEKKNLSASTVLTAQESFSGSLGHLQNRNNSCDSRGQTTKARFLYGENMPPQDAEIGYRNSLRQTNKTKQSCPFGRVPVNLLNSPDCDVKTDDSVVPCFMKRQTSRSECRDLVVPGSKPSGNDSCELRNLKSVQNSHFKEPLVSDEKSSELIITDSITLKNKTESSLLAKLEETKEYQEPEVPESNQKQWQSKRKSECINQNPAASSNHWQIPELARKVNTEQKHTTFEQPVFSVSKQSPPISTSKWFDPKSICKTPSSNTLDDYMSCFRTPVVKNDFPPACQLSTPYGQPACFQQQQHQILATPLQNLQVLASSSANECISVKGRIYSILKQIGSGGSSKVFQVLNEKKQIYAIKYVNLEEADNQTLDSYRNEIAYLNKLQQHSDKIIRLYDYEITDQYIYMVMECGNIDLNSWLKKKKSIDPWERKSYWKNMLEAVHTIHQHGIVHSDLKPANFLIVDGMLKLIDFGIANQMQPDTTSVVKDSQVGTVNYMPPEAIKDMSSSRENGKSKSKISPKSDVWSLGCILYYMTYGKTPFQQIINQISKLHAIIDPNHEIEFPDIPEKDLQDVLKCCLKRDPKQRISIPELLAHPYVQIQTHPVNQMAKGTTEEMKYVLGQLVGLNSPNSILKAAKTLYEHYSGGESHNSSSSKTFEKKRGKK
As to the kind of experiment: Inhibition of TTK (unknown origin) assessed as residual activity at 100 nM by KINOMEscan analysis relative to control.

Assay [2] addresses Serine/threonine-protein kinase B-raf (Homo sapiens) (UniProt P15056). As to the kind of experiment: Inhibition of BRAF (unknown origin) assessed as residual activity at 100 nM by KINOMEscan analysis relative to control.
Assay [3] deals with T2, Activin receptor type-1B (Homo sapiens) (UniProt P36896).
T2 sequence (whole entry): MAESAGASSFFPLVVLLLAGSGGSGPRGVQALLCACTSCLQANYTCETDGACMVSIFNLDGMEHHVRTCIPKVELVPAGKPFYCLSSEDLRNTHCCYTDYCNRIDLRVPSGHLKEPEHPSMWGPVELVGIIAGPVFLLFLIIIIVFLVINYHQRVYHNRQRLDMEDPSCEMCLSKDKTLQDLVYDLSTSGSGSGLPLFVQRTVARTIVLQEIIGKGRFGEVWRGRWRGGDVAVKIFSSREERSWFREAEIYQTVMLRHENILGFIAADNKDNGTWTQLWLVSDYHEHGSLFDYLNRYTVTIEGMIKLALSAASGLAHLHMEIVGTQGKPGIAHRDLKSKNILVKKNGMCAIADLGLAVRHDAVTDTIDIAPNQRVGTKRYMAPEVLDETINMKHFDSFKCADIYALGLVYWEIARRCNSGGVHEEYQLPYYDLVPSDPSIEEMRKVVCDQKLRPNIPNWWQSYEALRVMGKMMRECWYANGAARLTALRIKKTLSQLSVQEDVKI
Nature of the assay: Inhibition of ACVR1B (unknown origin) assessed as residual activity at 100 nM by KINOMEscan analysis relative to control.

The target in assay [4] is Cyclin-dependent kinase 8 (Homo sapiens) (UniProt P49336). Nature of the assay: Inhibition of CDK8 (unknown origin) assessed as residual activity at 100 nM by KINOMEscan analysis relative to control.
Cyclin-dependent kinase 8 (Homo sapiens), sequence (P49336 whole entry, the tested form may be a part): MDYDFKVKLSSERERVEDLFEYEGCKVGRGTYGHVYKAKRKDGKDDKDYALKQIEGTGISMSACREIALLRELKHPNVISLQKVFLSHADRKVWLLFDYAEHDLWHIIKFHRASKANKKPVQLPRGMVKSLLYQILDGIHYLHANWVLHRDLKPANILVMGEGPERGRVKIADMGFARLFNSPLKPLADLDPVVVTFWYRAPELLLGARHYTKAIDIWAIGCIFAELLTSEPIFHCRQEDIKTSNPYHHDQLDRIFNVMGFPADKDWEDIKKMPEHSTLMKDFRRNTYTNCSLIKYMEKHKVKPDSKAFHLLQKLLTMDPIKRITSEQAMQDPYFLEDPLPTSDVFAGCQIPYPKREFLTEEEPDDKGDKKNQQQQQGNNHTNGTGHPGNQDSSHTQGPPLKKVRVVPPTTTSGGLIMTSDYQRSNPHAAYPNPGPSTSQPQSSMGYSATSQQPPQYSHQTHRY
Assay [5] addresses T3, Ankyrin repeat and protein kinase domain-containing protein 1 (Homo sapiens) (UniProt Q8NFD2).
T3 sequence (whole entry): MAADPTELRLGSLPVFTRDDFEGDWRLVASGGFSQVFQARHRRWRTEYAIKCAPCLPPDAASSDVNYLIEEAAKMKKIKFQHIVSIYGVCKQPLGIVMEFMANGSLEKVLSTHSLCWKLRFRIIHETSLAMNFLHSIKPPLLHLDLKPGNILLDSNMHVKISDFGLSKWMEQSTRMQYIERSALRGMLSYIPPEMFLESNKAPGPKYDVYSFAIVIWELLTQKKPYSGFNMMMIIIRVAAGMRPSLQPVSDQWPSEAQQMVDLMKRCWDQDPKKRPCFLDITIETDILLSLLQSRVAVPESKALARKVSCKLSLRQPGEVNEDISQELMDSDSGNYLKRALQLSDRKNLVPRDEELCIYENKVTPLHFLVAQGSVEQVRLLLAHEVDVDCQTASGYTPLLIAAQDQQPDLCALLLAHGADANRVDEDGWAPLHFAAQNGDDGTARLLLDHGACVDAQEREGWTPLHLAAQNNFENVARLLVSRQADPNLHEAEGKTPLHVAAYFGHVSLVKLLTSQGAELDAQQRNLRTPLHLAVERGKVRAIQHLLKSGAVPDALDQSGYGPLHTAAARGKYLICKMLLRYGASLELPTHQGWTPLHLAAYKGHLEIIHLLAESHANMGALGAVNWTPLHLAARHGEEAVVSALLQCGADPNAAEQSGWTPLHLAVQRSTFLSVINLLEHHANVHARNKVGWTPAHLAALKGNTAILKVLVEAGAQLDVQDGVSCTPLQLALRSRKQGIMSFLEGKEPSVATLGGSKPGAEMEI
Nature of the assay: Inhibition of ANKK1 (unknown origin) assessed as residual activity at 100 nM by KINOMEscan analysis relative to control.

Serine/threonine-protein kinase B-raf (Homo sapiens), sequence (P15056 whole entry): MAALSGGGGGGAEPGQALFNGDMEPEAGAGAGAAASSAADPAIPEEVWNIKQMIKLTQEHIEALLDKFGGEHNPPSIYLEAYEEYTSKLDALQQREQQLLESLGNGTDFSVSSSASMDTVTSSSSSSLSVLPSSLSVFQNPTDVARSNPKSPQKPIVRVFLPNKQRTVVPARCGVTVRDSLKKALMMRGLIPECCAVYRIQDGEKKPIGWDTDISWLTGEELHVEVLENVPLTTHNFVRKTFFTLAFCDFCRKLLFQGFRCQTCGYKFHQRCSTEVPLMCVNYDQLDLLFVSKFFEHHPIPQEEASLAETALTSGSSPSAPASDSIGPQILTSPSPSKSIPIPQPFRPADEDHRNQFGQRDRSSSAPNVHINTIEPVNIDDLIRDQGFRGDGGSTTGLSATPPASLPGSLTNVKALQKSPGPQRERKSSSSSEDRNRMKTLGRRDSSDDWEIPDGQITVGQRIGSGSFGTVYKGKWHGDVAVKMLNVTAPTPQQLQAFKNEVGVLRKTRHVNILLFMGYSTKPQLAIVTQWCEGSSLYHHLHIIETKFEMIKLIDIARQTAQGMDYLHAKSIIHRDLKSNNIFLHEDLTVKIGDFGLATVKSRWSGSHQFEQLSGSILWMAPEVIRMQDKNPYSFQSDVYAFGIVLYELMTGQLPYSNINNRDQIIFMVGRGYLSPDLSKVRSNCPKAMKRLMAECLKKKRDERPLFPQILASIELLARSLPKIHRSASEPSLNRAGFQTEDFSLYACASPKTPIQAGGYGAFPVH

With `COc1cc2ncnc(N[C@H](C)c3cccc4ccccc34)c2cc1OC`, the Activity in assay [1] was 95%; in assay [2], 88%; in assay [3], 89%; in assay [4], 91%; in assay [5] it was 97%.

These data come from ChEMBL document CHEMBL5678818, “Discovery of potent SOS1 inhibitors that block RAS activation via disruption of the RAS-SOS1 interaction” (Proc Natl Acad Sci U S A, 2019).
